According to patent publication US8877264B2, “Composition of skin external application containing ginseng berry extracts” (Amorepacific Corporation, priority 2007, dated 2014):

Columns and labels:
[1] = system: ceramide; test: epidermal lipid (total ceramide) in human skin (TLC); format: in vivo; details: 5 wt % test material, twice every day, non-treated group = 100%
Experimental: In order to evaluate the effect of the ginseng berry extract of Example 1 on an increase in lipid synthesis in human skin, 0.5 wt % of Carbopol ETD 2020, 0.45% of TEA, 5 wt % of the test material and the balance of deionized water were used. On 12 adult men and women, a region corresponding to the diameter of a polypropylene conical tube was marked on the arm, and then was applied with 20 μl of each of control groups and the ginseng berry extract of Example 1 twice every day. The subjects were divided into two groups, and the production of lipid in the applied region was analyzed in the following manner by extracting lipid at day 3 and day 11. Specifically, the arm was washed with service water, and then subjected to tape stripping once with Scotch 810 Magic tape. Then, 1 ml of a mixture of cyclohexane/ethanol (4:1) was added to the tape using a cut 50-ml polypropylene conical tube as a reservoir and stirred for about 1 minute, and then the solution was transferred into a fresh tube. Then, the tape was treated with 1 ml of a mixture of cyclohexane/ethanol (1:1) in the same manner as described above, and the solution was collected in the tube. […]
After the TLC plate was developed, the size of each band was measured at a wavelength of 570 nm using TLC scanner-II (CAMAG; densitometer).

[2] = system: Human normal fibroblasts; test: inhibition of oxidative DNA damage, single cell gel electrophoresis (comet assay); format: cell-based; details: H2O2 10^-3 M; test material 10 ppm
Experimental: Human normal fibroblasts were cultured for 24 hr and treated with varying concentrations of each of the ginseng berry extract of Example 1 and vitamin E. After 12 hr, the cells were treated with the positive control H2O2 (final concentration: 10^−3M), and then stained by electrophoresis. […] Herein, the image analyzer KOMET 3.1 (Kinetic Imaging, England) was used to analyze the tail length (μm) resulting from the digestion of DNA in each of 25 cells, and the analysis results are shown in Table 3 below.

[3] = system: 5-alpha-reductase; test: 5-alpha-reductase activity, testosterone to dihydrotestosterone; format: biochemical, rat; details: 100 μg extract per reaction
Experimental: Adult SD (Spraque-Dawley) male rats (7-8-week old) were sacrificed with diethyl ether, the abdominal prostate was extracted, and the connective tissue was removed. The prostate tissue was finely cut in buffer (0.32 M sucrose, 0.1 mM dithiothreitol and 20 mM sodium acetate), and was then suspended with a stirrer. The suspension was centrifuged, and the supernatant was collected. 5-alpha-reductase was partially purified from the supernatant in order to the activity thereof.
A portion of the above-collected supernatant was taken and placed in buffer containing 0.2 M monobasic acid and 0.2 M dibasic acid. Then, the solution was allowed to react with a ^3H-bound substrate (testosterone), and the production of the product dihydrotestosterone was measured.
The reaction solution contained 1 mM dithiothreitol, 40 mM sodium phosphate (pH 6.5), 50 μM NADPH, [1,2,6,7-^3H] testosterone/testosterone ([…]), 0.8 mg enzyme suspension and 565 μl protein.
The ginseng berry extract of Example 1 was dissolved in 10% ethanol and added in an amount of 100 μg extract/10 μl 10% ethanol per reaction. […]
The plastic sheet was dried in air, and then a VAS system was used to measure of isotopes. Specifically, the dried plastic sheet together with an X-ray film was placed in a VAS cassette, and after 1 week, the amounts of the testosterone and dihydrotestosterone isotopes remaining on the film were measured.

[4] = system: C57BL/6 mouse melanocytes (Mel-Ab cells); test: melanin production inhibition in mouse melanocytes; format: cell-based; details: positive control, concentration not given
[5] = system: human skin; test: whitening effect on UVB-darkened human skin (colorimeter); format: in vivo; details: UVB-darkened upper arm, 10 weeks of application
[6] = system: lipogenesis in sebaceous glands; test: lipogenesis inhibition in hamster ear tissue (C14 uptake); format: cell-based; details: 0.01% test material solution, 6 hours, average of 4 hamsters
Experimental: The degree of lipogenesis in sebaceous glands was evaluated by evaluating the inhibition of lipogenesis through the quantification of carbon uptake required for lipogenesis.
Specifically, the ear tissue of hamsters, having abundant sebaceous glands, was biopsied, and the degree of lipogenesis was evaluated by comparatively quantifying the control group and the test materials using a radioactivity meter in C14-labeled media for 6 hours. In the test material groups, the right ear tissue of hamsters was used and 0.01% test material solutions were added to the media, and in the control group, the left ear tissue of hamsters was used and 0.01% saline was added to the media.
Meanwhile, the inhibition (%) in Table 17 was calculated according to the following equation 4 and was expressed as the average of 4 hamsters. […] [Equation 4]

OCC(O)CO [Glycerin, glycerin]
production of ceramide, After 3 days of treatment [1]: 102%
production of ceramide, After 11 days of treatment [1]: 94%

vitamin E
Inhibition of oxidative damage to DNA [2]: 38.9%
Tail length [2]: 70.6 μm

Cc1cc2nc3c(=O)[nH]c(=O)nc-3n(C[C@H](O)[C@H](O)[C@H](O)CO)c2cc1C [Positive control group, riboflavin]
Conversion: radioactivity in the DHT region/total radioactivity ([3]; 37° C., 30 minutes): 28.7%
Inhibition of 5-alpha-reductase ([3]; vs conversion of control group): 32.4%

Oc1ccc(O)cc1 [Hydroquinone, hydroquinone]
Melanin production inhibition [4]: 41.1%
Skin-color brightness (ΔL*) [5]: 1.90 ± 0.13

CC1=C(/C=C/C(C)=C/C=C/C(C)=C/C(=O)O)C(C)(C)CCC1 [retinoic acid]
Inhibition of lipogenesis [6]: 52%
